# Laboratory results published in article PMC9475553, “SHF Acts as a Novel Tumor Suppressor in Glioblastoma Multiforme by Disrupting STAT3 Dimerization” (Advanced Science, 2022).
# Experiments:
# [1] = tested on: global DNA methylation; assay: Global DNA methylation (5-mC ELISA) assay in U87 cells; assay type: cell-based, human; settings: U87 cells treated with C16; n = 3, p < 0.01
# Method: Figure 7 Peptide derived from the STAT3‐binding sites of SHF is an effective GBM suppressive strategy. A) Binding model between SHF and STAT3 using ZDOCK server. […] B) IF staining determined the cell penetrability and nuclear‐localization of C16. U251 cells were incubated with C16 or SC for 2 h and performed IF staining using the indicated antibodies. Bars, 10 µm. C) The statical analysis of adsorption equilibrium assay detecting the binding of C16 and SC with recombinant STAT3. D) Pull‐down assay indicating C16 binds STAT3. GST‐STAT3 was incubated with C16 or SC for 2 h, and the pull‐down assay was performed using Anti‐His magnetic beads. E) IP assay showing the effect of C16 on STAT3 dimerization. […] The relative quantification of STAT3 dimerization was listed. […] The relative quantification of STAT3/DNMT1 interaction was listed. […] The relative quantification of STAT3/DNMT1 interaction was listed. […] Positive cells were quantified 20 randomly selected fields per mouse (n = 6, Student's t‐test, **p < 0.01). […]
# Global DNA methylation status was quantified by the MethylFlash Global DNA Methylation (5‐mC) ELISA Easy Kit (Epigentek, Brooklyn, NY). Levels of 5‐methylcytosine (5‐mC) were calculated according to the manufacturer's instructions. In brief, the purified and quantified genomic DNA were bound to strip‐wells treated for high DNA affinity. […]
# [2] = tested on: U118 cells; assay: Cell growth assay (CCK-8), U118; assay type: cell-based, human; settings: n=6
# Method: (§1) Cell growth was quantified using the Cell Counting Kit‐8 Assay Kit (Bimake, Houston, TX). Each experiment was repeated at least six times. For the colony formation assay, 800 cells were seeded into each well of a six‐well plate with soft agar (Agarose; Sigma, St. Louis, MO) and maintained in a medium containing 10% FBS for 14 days. The colonies were fixed with methanol and stained with 0.1% crystal violet; the clones containing at least 50 cells were counted using an inverted microscope.
# (§2) Supplementary Fig. 9 C16 inhibits tumor growth and promotes chemosensitivity in vitro.
# (§3) B. Colony formation of cells treated with SC or C16 (left) and the accompanying statistical
# (§4) analysis (right; n=6, Student’s t-test, **P < 0.01).
# (§5) C. Annexin V staining flow cytometry assay of cells simultaneously treated with Dox with SC or
# (§6) C16 for 48 h (n=3, Student’s t-test, *P < 0.05, **P < 0.01).
# (§7) (1 picture or pasted object on this page, not shown here)
# [3] = tested on: GST-STAT3; assay: Pull-down assay, GST-STAT3 with peptide; assay type: binding; settings: GST-STAT3 incubated with C16 or SC for 2 h; Anti-His magnetic beads
# Method: (§8) Figure 7 Peptide derived from the STAT3‐binding sites of SHF is an effective GBM suppressive strategy. A) Binding model between SHF and STAT3 using ZDOCK server. […] B) IF staining determined the cell penetrability and nuclear‐localization of C16. U251 cells were incubated with C16 or SC for 2 h and performed IF staining using the indicated antibodies. Bars, 10 µm. C) The statical analysis of adsorption equilibrium assay detecting the binding of C16 and SC with recombinant STAT3. D) Pull‐down assay indicating C16 binds STAT3. GST‐STAT3 was incubated with C16 or SC for 2 h, and the pull‐down assay was performed using Anti‐His magnetic beads. E) IP assay showing the effect of C16 on STAT3 dimerization. 293T cells transfected with indicated vectors were incubated with C16 for 2 h. The relative quantification of STAT3 dimerization was listed. F) IP assay detecting the effect of C16 on the interaction of STAT3 and DNMT1. […] The relative quantification of STAT3/DNMT1 interaction was listed. […] The relative quantification of STAT3/DNMT1 interaction was listed. […] Positive cells were quantified 20 randomly selected fields per mouse (n = 6, Student's t‐test, **p < 0.01). […]
# (§9) Immunoprecipitation (IP) experiments were performed to analyze the protein interactions. […] Precipitated products were analyzed by Western blot using the specified antibodies. […]
# [4] = tested on: U87 cells; assay: Cell growth assay (CCK-8), U87; assay type: cell-based, human; settings: n=6
# Method: as §1, §2, §3, §4, §5, §6, §7
# [5] = tested on: GBM cells; assay: Colony formation assay; assay type: cell-based, human; settings: C16 vs SC; 25 uM stated adequate for subsequent experiments; n=6, P < 0.01
# Method: as §1, §2, §3, §4, §5, §6, §7
# [6] = tested on: STAT3/DNMT1 interaction; assay: IP assay: endogenous STAT3/DNMT1 interaction in U87 cells; assay type: cell-based, human; settings: C16 for 2 h, n = 3, p < 0.01
# Method: as §8, §9
# [7] = tested on: GBM cells; assay: Annexin V flow cytometry apoptosis assay; assay type: cell-based, human; settings: 25 uM stated adequate for subsequent experiments, n=3
# Method: Cell apoptosis was detected by flow cytometry according to the manufacturer's instructions of the Annexin V‐FITC Apoptosis Detection Kit (KeyGen Biotech, China). Briefly, cells were incubated with Doxorubicin (DOX, 2 µM) for 48 h. Cells were harvested and rinsed with ice‐cold PBS and then resuspended in 200 µL of binding buffer. 10 mL of AV‐FITC stock solution was added to cell suspensions and incubated for 15 min at RT. Cells were further rinsed with 200 µL ice‐cold PBS and immediately analyzed by a FACScan flow cytometry.
# as §2, §3, §4, §5, §6, §7
# [8] = tested on: STAT3 dimerization; assay: IP assay: STAT3 dimerization in 293T cells; assay type: cell-based, human; settings: transfected 293T cells incubated with C16 for 2 h
# Method: as §8, §9
substance,measurement,setting,value
"C16: peptide spanning SHF amino acids 388–421, palmitic acid at the N-terminus, amidated C-terminus, 3× His tags added to the C-terminal (PFSSVPEIVHHYASRKLPIKGAEHMSLLYPVAIR; palmitic acid at the N-terminus; amidated C-terminus; left off: 3× His tags, C-terminal, kept)",global DNA methylation,[1],significant decrease
same,cell growth inhibition,[2],inhibited cell growth with concentration dependence
same,STAT3 binding in pull-down / in vitro IP,[3],contains the STAT3 binding capacity
same,cell growth inhibition,[4],inhibited cell growth with concentration dependence
same,colony growth,[5],effectively impaired colony growth
same,endogenous STAT3/DNMT1 interaction,[6],decrease
same,spontaneous apoptosis,[7]; C16 vs SC,without increasing spontaneous apoptosis
same,chemosensitivity (apoptosis with Dox),[7]; simultaneous Dox with SC or C16 for 48 h,promoted chemosensitivity
same,inhibition of STAT3 dimerization (IP),[8],effectively inhibits STAT3 dimerization
